For data set [1], the target named is T1, full length KDR receptor in NIH3T3 cells (Homo sapiens, UniProt P35968).
T1 construct: NIH3T3 cells expressing the full length KDR receptor were grown in DMEM; expressed in transfected cells; host or cells: NIH3T3 cells (G418 selection)
The data set can be described thus: Cell Mechanistic Assay-Inhibition of 3T3 KDR Phosphorylation. As to conditions: NIH3T3 cells expressing KDR, VEGF 30 ng/ml stimulation. In kind it is cell-based. The protocol: NIH3T3 cells expressing the full length KDR receptor were grown in DMEM (Life Technologies, Inc., Grand Island, N.Y.) supplemented with 10% newborn calf serum, low glucose, 25 mM/L sodium pyruvate, pyridoxine hydrochloride and 0.2 mg/ml of G418 (Life Technologies Inc., Grand Island, N.Y.). The cells were maintained in collagen I-coated T75 flasks (Becton Dickinson Labware, Bedford, Mass.) in a humidified 5% CO2 atmosphere at 37° C.
Fifteen thousand cells were plated into each well of a collagen I-coated 96-well plate in the DMEM growth medium. Six hours later, the cells were washed and the medium was replaced with DMEM without serum. After overnight culture to quiesce the cells, the medium was replaced by Dulbecco's phosphate-buffered saline (Life Technologies Inc., Grand Island, N.Y.) with 0.1% bovine albumin (Sigma Chemical Co., St Louis, Mo.). After adding various concentrations (0-300 nM) of test compounds to the cells in 1% final concentration of DMSO, the cells were incubated at room temperature for 30 minutes. The cells were then treated with VEGF (30 ng/ml) for 10 minutes at room temperature. Following VEGF stimulation, the buffer was removed and the cells were lysed by addition of 150 μl of extraction buffer (50 mM Tris, pH 7.8, supplemented with 10% glycerol, 50 mM BGP, 2 mM EDTA, 10 mM NaF, 0.5 mM NaVO4, and 0.3% TX-100) at 4° C. for 30 minutes.
To assess receptor phosphorylation, 100 microliters of each cell lysate was added to the wells of an ELISA plate precoated with 300 ng of antibody C20 (Santa Cruz Biotechnology, Inc., Santa Cruz, Calif.). Following a 60-minute incubation, the plate was washed and bound KDR was probed for phosphotyrosine using an anti-phosphotyrosine mAb clone 4G10 (Upstate Biotechnology, Lake Placid, N.Y.). The plate was washed and wells were incubated with anti-mouse IgG/HRP conjugate (Amersham International plc, Buckinghamshire, England) for 60 minutes. Wells were washed and phosphotyrosine was quantitated by addition of 100 μl per well of 3,3′,5,5′tetramethylbenzidine (Kirkegaard and Perry, TMB Microwell 1 Component peroxidase substrate) solution. Color development was arrested by the addition of 100 μl 1% HCl based stop solution (Kirkegaard and Perry, TMB 1 Component Stop Solution).
Optical densities (OD) were determined spectrophotometrically at 450 nm in a 96-well plate reader (SpectraMax 250, Molecular Devices). Background (no VEGF added) OD values were subtracted from all ODs and percent inhibition was calculated according to the equation: [formula]
IC50s were determined on some of the exemplary materials with a least squares analysis program using compound concentration versus percent inhibition. Compounds that have IC50≦20 nM in this assay include those of Examples 2, 6, 10, 11, 14, 23, 96, 101, 102, 103, 104, 105. Compounds that have IC50 values between 20 nM and 50 nM include those of examples 1, 4, 8, 9, 12, 13, 17, 24, 93, 98. Compounds that have IC50 values between 50 nM and 400 nM include those of examples 97, 99, and 100.

Data set [2] deals with T2, cytosolic kinase domain of KDR kinase (Homo sapiens, UniProt P35968).
T2 construct: The cytosolic kinase domain of KDR kinase was expressed as a 6His fusion protein in Sf9 insect cells; 6His; made in house; host or cells: Sf9 insect cells
The data set can be described thus: KDR Assay (ELISA, poly(Glu4;Tyr1) phosphorylation). It is filed as biochemical. The settings on record: 3.3 μM ATP, 60 minutes at room temperature. The protocol: The cytosolic kinase domain of KDR kinase was expressed as a 6His fusion protein in Sf9 insect cells. The KDR kinase domain fusion protein was purified over a Ni++ chelating column. Ninety-six well ELISA plates were coated with 5 μg poly(Glu4;Tyr1) (Sigma Chemical Co., St Louis, Mo.) in 100 μl HEPES buffer (20 mM HEPES, pH 7.5, 150 mM NaCl, 0.02% Thimerosal) at 4° overnight. Before use, the plate was washed with HEPES, NaCl buffer and the plates were blocked with 1% BSA, 0.1% Tween 20 in HEPES, NaCl buffer.
Test compounds were serially diluted in 100% DMSO from 4 mM to 0.12 μM in half-log dilutions. These dilutions were further diluted twenty fold in H2O to obtain compound solutions in 5% DMSO. Following loading of the assay plate with 85 μl of assay buffer (20 mM HEPES, pH 7.5, 100 mM KCl, 10 mM MgCl2, 3 mM MnCl2, 0.05% glycerol, 0.005% Triton X-100, 1 mM-mercaptoethanol, with or without 3.3 μM ATP), 5 μl of the diluted compounds were added to a final assay volume of 100 μl. Final concentrations were between 10 μM, and 0.3 nM in 0.25% DMSO. The assay was initiated by the addition of 10 μl (30 ng) of KDR kinase domain.
The assay was incubated with test compound or vehicle alone with gentle agitation at room temperature for 60 minutes. The wells were washed and phosphotyrosines (PY) were probed with an anti-phosphotyrosine (PY), mAb clone 4G10 (Upstate Biotechnology, Lake Placid, N.Y.). PY/anti-PY complexes were detected with an anti-mouse IgG/HRP conjugate (Amersham International plc, Buckinghamshire, England). Phosphotyrosine was quantitated by incubating with 100 μl 3,3′,5,5′tetramethylbenzidine solution (Kirkegaard and Perry, TMB Microwell 1 Component peroxidase substrate). Color development was arrested by the addition of 100 μl 1% HCl-based stop solution (Kirkegaard and Perry, TMB 1 Component Stop Solution).
Optical densities were determined spectrophotometrically at 450 nm in a 96-well plate reader, SpectraMax 250 (Molecular Devices). Background (no ATP in assay) OD values were subtracted from all ODs and the percent inhibition was calculated according to the equation: [formula]
A general note: ELISA stands for enzyme-linked immunosorbent assay.

Our source for the melting point and IC50 values is US6689883B1, “Substituted pyridines and pyridazines with angiogenesis inhibiting activity” (Bayer Pharmaceuticals Corporation, priority 1999, dated 2004).

As usually defined, the melting point is the temperature of the solid-liquid transition. What is called IC50 is the concentration needed to halve the response being measured.

T2 sequence (P35968 834-1162 limits assumed): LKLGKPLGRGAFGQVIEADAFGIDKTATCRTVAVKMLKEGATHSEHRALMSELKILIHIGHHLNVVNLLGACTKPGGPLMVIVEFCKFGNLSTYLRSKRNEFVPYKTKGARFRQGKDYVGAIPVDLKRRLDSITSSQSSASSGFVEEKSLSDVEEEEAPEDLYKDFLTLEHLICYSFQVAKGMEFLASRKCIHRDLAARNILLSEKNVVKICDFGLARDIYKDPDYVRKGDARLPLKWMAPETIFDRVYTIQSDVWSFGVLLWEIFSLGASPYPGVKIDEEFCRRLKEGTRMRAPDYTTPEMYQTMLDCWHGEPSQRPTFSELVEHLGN
T1 sequence (P35968 20-1356): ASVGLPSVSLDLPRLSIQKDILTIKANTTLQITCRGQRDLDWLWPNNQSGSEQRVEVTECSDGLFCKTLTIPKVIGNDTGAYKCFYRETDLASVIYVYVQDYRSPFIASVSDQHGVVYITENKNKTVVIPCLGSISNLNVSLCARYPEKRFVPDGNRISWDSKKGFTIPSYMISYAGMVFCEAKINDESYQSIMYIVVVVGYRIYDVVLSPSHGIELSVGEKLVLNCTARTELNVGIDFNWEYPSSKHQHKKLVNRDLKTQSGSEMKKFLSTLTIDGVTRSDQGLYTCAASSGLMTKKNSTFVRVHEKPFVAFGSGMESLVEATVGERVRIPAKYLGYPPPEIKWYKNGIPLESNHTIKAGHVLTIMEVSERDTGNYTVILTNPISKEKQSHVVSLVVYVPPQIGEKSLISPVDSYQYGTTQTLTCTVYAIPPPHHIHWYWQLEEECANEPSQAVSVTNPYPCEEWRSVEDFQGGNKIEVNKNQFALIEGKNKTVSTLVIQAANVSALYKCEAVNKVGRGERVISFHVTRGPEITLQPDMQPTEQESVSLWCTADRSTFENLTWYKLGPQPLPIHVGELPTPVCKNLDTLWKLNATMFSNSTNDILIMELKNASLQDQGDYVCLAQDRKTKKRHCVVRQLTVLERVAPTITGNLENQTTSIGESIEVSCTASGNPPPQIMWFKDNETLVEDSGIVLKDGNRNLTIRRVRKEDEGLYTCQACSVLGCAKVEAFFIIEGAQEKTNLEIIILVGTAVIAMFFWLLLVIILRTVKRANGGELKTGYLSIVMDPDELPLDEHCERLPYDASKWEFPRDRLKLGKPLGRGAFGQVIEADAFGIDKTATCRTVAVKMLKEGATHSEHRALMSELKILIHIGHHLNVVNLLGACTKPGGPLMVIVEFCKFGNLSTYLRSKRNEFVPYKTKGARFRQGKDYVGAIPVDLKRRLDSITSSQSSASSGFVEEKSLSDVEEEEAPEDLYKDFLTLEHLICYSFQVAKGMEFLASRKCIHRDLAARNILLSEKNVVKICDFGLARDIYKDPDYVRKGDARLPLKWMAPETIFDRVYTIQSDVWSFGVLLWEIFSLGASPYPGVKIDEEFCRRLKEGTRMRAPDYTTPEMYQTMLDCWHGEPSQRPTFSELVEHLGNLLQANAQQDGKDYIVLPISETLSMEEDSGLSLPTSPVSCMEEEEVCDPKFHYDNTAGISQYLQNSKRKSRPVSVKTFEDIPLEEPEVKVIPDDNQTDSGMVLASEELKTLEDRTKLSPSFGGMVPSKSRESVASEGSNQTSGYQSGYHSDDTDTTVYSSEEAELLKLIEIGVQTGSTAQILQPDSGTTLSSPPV

For `NC(=O)c1cc(COc2nnc(Nc3ccc(Cl)cc3)c3ccsc23)ccn1` [Example 10, 4-(4-chlorophenylamino)-7-(2-aminocarbonyl-4-pyridylmethoxy)thieno-[2,3-d]pyridazine], the melting point is 233 °C. Besides, the 50% inhibitory concentration (IC50) in data set [1] is at most 20 nM. The same compound yielded an IC50 in data set [2] of at most 100 nM.

Regarding `c1ccc2c(Nc3ccc4c(c3)CCC4)ncc(Sc3ccncc3)c2c1` [Example 2, 1-(indan-5-ylamino)-4-(4-pyridylthio)isoquinoline], the results for the IC50 in data set [1] and in data set [2] were at most 20 nM and at most 100 nM, respectively.

On to `Clc1ccc(Nc2nnc(Nc3ccc4nn[nH]c4c3)c3ccccc23)cc1` [Example 96], for which the IC50 in data set [1] is at most 20 nM; in data set [2], at most 100 nM.

Turning to `Clc1ccc(Nc2nnc(Nc3ccc4ncsc4c3)c3sccc23)cc1` [Example 23], the IC50 in data set [1] is at most 20 nM.

For the compound `CNC(=O)c1cc(COc2nnc(Nc3ccc(Cl)cc3)c3ccoc23)ccn1` [Example 14, 4-(4-chlorophenylamino)-7-(2-methylaminocarbonyl-4-pyridylmethoxy)furo-[2,3-d]pyridazine], the IC50 was at most 20 nM in data set [1] and at most 100 nM in data set [2].

As to `Brc1cccc(Nc2nnc(Nc3ccc4ncsc4c3)c3ccccc23)c1` [Example 101], the IC50 in data set [1] was at most 20 nM; in data set [2], at most 100 nM.

On to `Clc1ccc(Nc2nnc(Nc3ccc4ncsc4c3)c3ccccc23)cc1` [Example 105], for which the results for the IC50 in data set [1] and in data set [2] were at most 20 nM and at most 100 nM, respectively.

For the compound `CNC(=O)c1cc(COc2nnc(Nc3ccc(Cl)cc3)c3ccsc23)ccn1` [Example 11, 4-(4-chlorophenylamino)-7-(2-methylaminocarbonyl-4-pyridylmethoxy)thieno-[2,3-d]pyridazine], the IC50 in data set [1] was at most 20 nM; in data set [2] it was at most 100 nM.

On to `Clc1ccc(Nc2nnc(OCc3ccncc3)c3occc23)cc1` [Example 9, 4-(4-chlorophenylamino)-7-(4-pyridylmethoxy)furo[2,3-d]pyridazine], for which the half-inhibitory concentration (IC50) in data set [1] is 20 to 50 nM; in data set [2], at most 100 nM.

For `c1ccc2c(Nc3ccc4c(c3)CCC4)ncc(Cc3ccncc3)c2c1` [Example 6, 1-(indan-5-ylamino)-4-(4-pyridylmethyl)-isoquinoline], the half-inhibitory concentration (IC50) in data set [1] was at most 20 nM; in data set [2], at most 100 nM.

As to `Clc1ccc(Nc2nnc(OCc3ccncc3)c3sccc23)cc1` [Example 8, 4-(4-chlorophenylamino)-7-(4-pyridylmethoxy)thieno-[2,3-d]pyridazine], the melting point is 203 to 205 °C (dec.). This compound came in with a 50% inhibitory concentration (IC50) in data set [2] of at most 100 nM.

For the compound `COc1cccc(Nc2nnc(Nc3ccc4ncsc4c3)c3ccccc23)c1` [Example 103], the half-maximal inhibitory concentration (IC50) was at most 20 nM in data set [1] and at most 100 nM in data set [2].

`CC(C)c1ccc(Nc2nnc(Nc3ccc4ncsc4c3)c3ccccc23)cc1` [Example 102]: the values for the IC50 in data set [1] and in data set [2] were at most 20 nM and at most 100 nM, respectively.
